Source: ChEMBL document CHEMBL3621101 (Medchemcomm, 2014)

experiment: physchem; settings: pH 7

In order of rising pKa:
1. CN1CCCN(c2nc(NC3CCN(Cc4ccccc4)CC3)c3[nH]cnc3n2)CC1  3.15
2. CN1CCCN(c2nc(NC3CCN(Cc4ccccc4)CC3)c3ccsc3n2)CC1  3.28
3. CN1CCN(c2nc(NC3CCN(Cc4ccccc4)CC3)c3ccsc3n2)CC1  3.35
4. c1ccc(CN2CCC(Nc3nc(N4CCCCC4)nc4nc[nH]c34)CC2)cc1  3.73
5. c1ccc(CN2CCC(Nc3nc(N4CCCCC4)nc4sccc34)CC2)cc1  3.86
6. CN1CCCN(c2nc(NC3CCN(Cc4ccccc4)CC3)c3occc3n2)CC1  4.57
7. CN1CCN(c2nc(NC3CCN(Cc4ccccc4)CC3)c3occc3n2)CC1  4.66
8. c1ccc(CN2CCC(Nc3nc(N4CCCCC4)nc4ccoc34)CC2)cc1  5.31
9. CN1CCN(c2nc(NC3CCN(Cc4ccccc4)CC3)c3ccccc3n2)CC1  5.53
10. CN1CCN(c2nc(NC3CCN(Cc4ccccc4)CC3)c3cc4c(cc3n2)OCO4)CC1  5.58
11. COc1cc2nc(N3CCN(C)CC3)nc(NC3CCN(Cc4ccccc4)CC3)c2cc1OC  5.6
12. CN1CCCN(c2nc(NC3CCN(Cc4ccccc4)CC3)c3sccc3n2)CC1  5.68
13. c1ccc(CN2CCC(Nc3nc(N4CCN(c5ccccn5)CC4)nc4ccoc34)CC2)cc1  5.77
14. CN1CCN(c2nc(NC3CCN(Cc4ccccc4)CC3)c3sccc3n2)CC1  5.77
15. c1ccc(CN2CCC(Nc3nc(N4CCCCC4)nc4ccsc34)CC2)cc1  6.42
16. CN1CCCN(c2nc3c(c(NC4CCN(Cc5ccccc5)CC4)n2)CCC3)CC1  6.62
17. c1ccc(CN2CCC(Nc3nc(N4CCN(c5ccccn5)CC4)nc4ccsc34)CC2)cc1  6.88
18. c1ccc(CN2CCC(Nc3nc(N4CCCCC4)nc4ccccc34)CC2)cc1  7.4
19. c1ccc(CN2CCC(Nc3nc(N4CCCCC4)nc4cc5c(cc34)OCO5)CC2)cc1  7.45
20. COc1cc2nc(N3CCCCC3)nc(NC3CCN(Cc4ccccc4)CC3)c2cc1OC  7.47
21. c1ccc(CN2CCC(Nc3nc(N4CCN(c5ccccn5)CC4)nc4ccccc34)CC2)cc1  8.03
22. CN1CCCN(c2nc(NC3CCN(Cc4ccccc4)CC3)c3ccccc3n2)CC1  8.06
23. c1ccc(CN2CCC(Nc3nc(N4CCN(c5ccccn5)CC4)nc4cc5c(cc34)OCO5)CC2)cc1  8.08
24. COc1cc2nc(N3CCN(c4ccccn4)CC3)nc(NC3CCN(Cc4ccccc4)CC3)c2cc1OC  8.1
25. COc1cc2nc(N3CCCN(C)CC3)nc(NC3CCN(Cc4ccccc4)CC3)c2cc1OC  8.13
26. COc1cc2nc(N3CCN(C)CC3)cc(NC3CCN(Cc4ccccc4)CC3)c2cc1OC  9.84
27. COc1cc2nc(N3CCCN(C)CC3)cc(NC3CCN(Cc4ccccc4)CC3)c2cc1OC  10.6
